The source of these data is patent publication US20050203151A1, “Novel compounds, compositions and uses thereof for treatment of metabolic disorders and related conditions” (Kalypsys, Inc., priority 2003, published 2005).

What all share (assay type): cell-based
The target of test [1] is T1, PPAR-delta (Homo sapiens, UniProt Q03181).
T1 construct: expressed in transfected cells; host or cells: CV-1 cells
T1 sequence (Q03181 211-439 limits assumed): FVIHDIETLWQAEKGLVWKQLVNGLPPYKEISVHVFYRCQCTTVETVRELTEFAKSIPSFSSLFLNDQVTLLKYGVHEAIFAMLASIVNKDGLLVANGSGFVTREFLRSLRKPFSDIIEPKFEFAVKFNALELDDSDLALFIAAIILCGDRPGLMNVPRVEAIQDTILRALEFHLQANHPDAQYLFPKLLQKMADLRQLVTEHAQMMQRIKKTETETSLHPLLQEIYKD
The experiment in a line: human PPAR-GAL4 chimera luciferase reporter assay in CV-1 cells, PPAR-delta. The procedure: (§1) The compounds were evaluated in a cell-based assay to determine their human PPAR activity. The plasmids for human PPAR-GAL4 chimeras were prepared by fusing amplified cDNAs encoding the LBDs of PPARs to the C-terminal end of the yeast GAL4 DNA binding domain. CV-1 cells were grown and transiently transected with PerFectin (GTS, San Diego, Calif.) according to the manufacturer's protocol along with a luciferase reporter. Eight hours after transfection, 50 μl of cells were replated into 384 well plates ([…]). Sixteen hours after replating, cells were treated with either compounds or 1% DMSO for 24 hours. Luciferase activity was then assayed with Britelite (Perkin Elmer) following the manufacturer's protocol and measured with either the Perkin Elmer Viewlux or Molecular Devices Acquest.
(§2) Compounds may be screened for functional potency in transient transfection assays in CV-1 cells for their ability to activate the PPAR subtypes (transactivation assay). A previously established chimeric receptor system was utilized to allow comparison of the relative transcriptional activity of the receptor subtypes on the same synthetic response element and to prevent endogenous receptor activation from complicating the interpretation of results. See, for example, Lehmann, J. M.; Moore, L. B.; Smith-Oliver, T. A; Wilkinson, W. O.; Willson, T. M.; Kliewer, S. A., An antidiabetic thiazolidinedione is a high affinity ligand for peroxisome proliferator-activated receptory γ (PPARγ), J. Biol. Chem., 1995, 270, 12953-6. The ligand binding domains for murine and human PPAR-alpha, PPAR-gamma, and PPAR-delta are each fused to the yeast transcription factor GAL4 DNA binding domain. CV-1 cells were transiently transfected with expression vectors for the respective PPAR chimera along with a reporter construct containing four or five copies of the GAL4 DNA binding site driving expression of luciferase. After 8-16 h, the cells are replated into multi-well assay plates and the media is exchanged to phenol-red free DME medium supplemented with 5% delipidated calf serum. 4 hours after replating, cells were treated with either compounds or 1% DMSO for 20-24 hours. Luciferase activity was then assayed with Britelite (Perkin Elmer) following the manufacturer's protocol and measured with either the Perkin Elmer Viewlux or Molecular Devices Acquest (see, for example, Kliewer, S. A., et. al. Cell 1995, 83, 813-819). Rosiglitazone is used as a positive control in the hPPAR-γ assay. Wy-14643 and GW7647 is used as a positive control in the hPPAR-α assay. GW501516 is used as the positive control in the hPPAR-δ assay.
In general terms: In a reporter assay the amount or activity of a reporter protein is the signal.

Test [2] concerns the target T2, PPAR-gamma (Homo sapiens, UniProt P37231).
T2 construct: expressed in transfected cells; host or cells: CV-1 cells
T2 sequence (P37231 238-503 limits assumed): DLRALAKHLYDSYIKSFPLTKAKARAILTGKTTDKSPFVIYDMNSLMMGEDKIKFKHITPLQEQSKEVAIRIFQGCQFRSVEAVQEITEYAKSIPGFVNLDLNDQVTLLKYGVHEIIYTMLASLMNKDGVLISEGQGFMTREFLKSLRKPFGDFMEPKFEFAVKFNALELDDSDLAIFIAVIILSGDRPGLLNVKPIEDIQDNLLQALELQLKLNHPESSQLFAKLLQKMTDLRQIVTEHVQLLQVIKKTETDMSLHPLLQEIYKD
In words: human PPAR-GAL4 chimera luciferase reporter assay in CV-1 cells, PPAR-gamma. The procedure:
as §1, §2

The target of test [3] is T3, PPAR-alpha (Homo sapiens, UniProt Q07869).
T3 construct: expressed in transfected cells; host or cells: CV-1 cells
T3 sequence (Q07869 239-466 limits assumed): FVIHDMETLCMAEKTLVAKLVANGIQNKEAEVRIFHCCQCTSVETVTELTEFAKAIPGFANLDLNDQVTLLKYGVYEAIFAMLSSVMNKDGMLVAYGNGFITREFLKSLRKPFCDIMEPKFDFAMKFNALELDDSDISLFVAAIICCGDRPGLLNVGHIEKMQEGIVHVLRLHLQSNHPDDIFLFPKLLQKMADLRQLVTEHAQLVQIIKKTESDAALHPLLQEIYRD
The experiment in a line: human PPAR-GAL4 chimera luciferase reporter assay in CV-1 cells, PPAR-alpha. The procedure:
as §1, §2

Where [4] appears, read: Table 2, Examples 1-10, read-out: PPAR δ EC50.
Where [5] appears, read: Table 2, Examples 1-10, read-out: PPAR γ EC50.
Where [6] appears, read: Table 2, Examples 1-10, read-out: PPAR α EC50.
[7] abbreviates: Table 3, Examples 11-25, read-out: PPAR delta (EC50).
The mark [8] stands for this setting: Table 3, Examples 11-25, read-out: PPAR gamma (EC50).
The mark [9] stands for this setting: Table 3, Examples 11-25, read-out: PPAR alpha (EC50).

Like-named read-outs stand apart in the source and are kept apart here.

Turning to `Cc1nc(-c2ccc(C(F)(F)F)cc2)sc1COc1ccc2c(ccn2CC(=O)O)c1` [Example 3, {5-[4-methyl-2-(4-trifluoromethyl-phenyl)-thiazol-5-ylmethoxy]-indol-1-yl}-acetic acid], the EC50 in test [1] (setting [4]), in test [2] (setting [5]) and in test [3] (setting [6]) was above 10 µM throughout.

On to `Cc1nc(-c2ccc(C(F)(F)F)cc2)sc1Cn1ccc2cc(OCC(=O)O)ccc21` [Example 12, {1-[4-Methyl-2-(4-trifluoromethyl-phenyl)-thiazol-5-ylmethyl]-1H-indol-5-yloxy}-acetic acid], for which the EC50 in test [1] (setting [7]), in test [2] (setting [8]) and in test [3] (setting [9]) was 5 to 100 µM in each case.

Regarding `Cc1nc(-c2ccc(C(F)(F)F)cc2)sc1Cn1ccc2ccc(OC(C)(C)C(=O)O)cc21` [Example 16, 2-Methyl-2-{1-[4-methyl-2-(4-trifluoromethyl-phenyl)-thiazol-5-ylmethyl]-1H-indol-6-yloxy}-propionic acid], the EC50 in test [1] (setting [7]) was below 5 µM; in test [2] (setting [8]), 5 to 100 µM; in test [3] (setting [9]), 5 to 100 µM.

As to `Cc1nc(-c2ccc(C(F)(F)F)cc2)sc1CCN1CCc2cc(OCC(=O)O)ccc21` [Example 17, (1-{2-[4-Methyl-2-(4-trifluoromethyl-phenyl)-thiazol-5-yl]-ethyl}-2,3-dihydro-1H-indol-5-yloxy)-acetic acid], the EC50 in test [1] (setting [7]), in test [2] (setting [8]) and in test [3] (setting [9]) was 5 to 100 µM throughout.

For `Cc1nc(-c2ccc(C(F)(F)F)cc2)sc1CCN1CCc2cc(OC(C)(C)C(=O)O)ccc21` [Example 19, 2-Methyl-2-(1-{2-[4-methyl-2-(4-trifluoromethyl-phenyl)-thiazol-5-yl]-ethyl}-2,3-dihydro-1H-indol-5-yloxy)-propionic acid], the EC50 was below 5 µM in test [1] (setting [7]), 5 to 100 µM in test [2] (setting [8]) and below 5 µM in test [3] (setting [9]).

For the compound `Cc1nc(-c2ccc(C(F)(F)F)cc2)sc1Cn1cc(CC(=O)O)c2ccccc21` [Example 24, {1-[4-Methyl-2-(4-trifluoromethyl-phenyl)-thiazol-5-ylmethyl]-1H-indol-3-yl}acetic acid], the EC50 in test [1] (setting [7]) is below 5 µM; in test [2] (setting [8]), 5 to 100 µM; in test [3] (setting [9]), 5 to 100 µM.

With `Cc1nc(-c2ccc(C(F)(F)F)cc2)sc1CCN1CCc2ccc(OCC(=O)O)cc21` [Example 25, (1-{2-[4-Methyl-2-(4-trifluoromethyl-phenyl)-thiazol-5-yl]-ethyl}-2,3-dihydro-1H-indol-6-yloxy)-acetic acid], the EC50 in test [1] (setting [7]) was below 5 µM; in test [2] (setting [8]), 5 to 100 µM; in test [3] (setting [9]), 5 to 100 µM.

`Cc1nc(-c2ccc(C(F)(F)F)cc2)sc1CCn1ccc2ccc(OC(C)(C)C(=O)O)cc21` [Example 23, 2-Methyl-2-(1-{2-[4-methyl-2-(4-trifluoromethyl-phenyl)-thiazol-5-yl]-ethyl}-1H-indol-6-yloxy)-propionic acid]: the EC50 in test [1] (setting [7]) was 5 to 100 µM; in test [2] (setting [8]), 5 to 100 µM; in test [3] (setting [9]), below 5 µM.

Turning to `Cc1nc(-c2ccc(C(F)(F)F)cc2)sc1COc1ccc2ccn(CC(=O)O)c2c1` [Example 5, {6-[4-methyl-2-(4-trifluoromethyl-phenyl)-thiazol-5-ylmethoxy]-indol-1-yl}-acetic acid], the EC50 is below 1 µM in test [1] (setting [4]), 1 to 10 µM in test [2] (setting [5]) and above 10 µM in test [3] (setting [6]).

In the case of `Cc1nc(-c2ccc(C(F)(F)F)cc2)sc1COc1cccc2c1ccn2CC(=O)O` [Example 4, {4-[4-methyl-2-(4-trifluoromethyl-phenyl)-thiazol-5-ylmethoxy]-indol-1-yl}-acetic acid], the EC50 was below 1 µM in test [1] (setting [4]), 1 to 10 µM in test [2] (setting [5]) and above 10 µM in test [3] (setting [6]).

Turning to `Cc1nc(-c2ccc(C(F)(F)F)cc2)sc1COc1ccc2[nH]cc(CC(=O)O)c2c1` [Example 7, {5-[4-Methyl-2-(4-trifluoromethyl-phenyl)-thiazol-5-ylmethoxy]-1H-indol-3-yl}-acetic acid], the EC50 in test [1] (setting [4]) was below 1 µM; in test [2] (setting [5]) it was below 1 µM; in test [3] (setting [6]), above 10 µM.
